Here are results for one molecule from publication PMC6138237, “Machine intelligence decrypts β-lapachone as an allosteric 5-lipoxygenase inhibitor” (Chemical Science, 2018).

Structures are written as SMILES. Like-named read-outs stand apart in the source and are kept apart here.

The term IC50 denotes the point on the concentration scale where inhibition reaches its midpoint. Usually inhibition stands for the change of the read-out against control, counted positive when it falls.

The target of one assay is T1, 5-LO (Homo sapiens, UniProt P09917).
T1 sequence (P09917 1-674): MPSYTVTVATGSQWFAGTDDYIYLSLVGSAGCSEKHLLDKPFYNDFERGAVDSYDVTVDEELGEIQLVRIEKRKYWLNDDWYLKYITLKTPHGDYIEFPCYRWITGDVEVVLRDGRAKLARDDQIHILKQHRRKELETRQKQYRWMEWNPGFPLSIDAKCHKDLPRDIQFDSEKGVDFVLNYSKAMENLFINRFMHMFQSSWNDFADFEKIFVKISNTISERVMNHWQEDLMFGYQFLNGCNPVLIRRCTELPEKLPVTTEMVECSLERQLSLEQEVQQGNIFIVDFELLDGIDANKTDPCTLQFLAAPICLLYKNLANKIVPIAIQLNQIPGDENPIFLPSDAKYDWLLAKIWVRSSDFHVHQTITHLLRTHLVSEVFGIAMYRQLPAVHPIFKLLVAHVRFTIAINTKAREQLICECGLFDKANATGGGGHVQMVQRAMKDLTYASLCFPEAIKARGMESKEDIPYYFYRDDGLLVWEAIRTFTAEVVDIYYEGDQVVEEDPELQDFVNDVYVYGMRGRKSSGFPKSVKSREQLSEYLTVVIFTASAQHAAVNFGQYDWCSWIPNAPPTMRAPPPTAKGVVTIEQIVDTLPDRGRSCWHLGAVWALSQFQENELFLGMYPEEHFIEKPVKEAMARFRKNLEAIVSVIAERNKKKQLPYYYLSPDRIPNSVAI
Nature of the assay: 5-LO product formation in intact human neutrophils stimulated with A23187 plus arachidonic acid.

In a further assay the target is T2, 15-LO-2 (Homo sapiens, UniProt O15296).
T2 sequence (O15296 1-676): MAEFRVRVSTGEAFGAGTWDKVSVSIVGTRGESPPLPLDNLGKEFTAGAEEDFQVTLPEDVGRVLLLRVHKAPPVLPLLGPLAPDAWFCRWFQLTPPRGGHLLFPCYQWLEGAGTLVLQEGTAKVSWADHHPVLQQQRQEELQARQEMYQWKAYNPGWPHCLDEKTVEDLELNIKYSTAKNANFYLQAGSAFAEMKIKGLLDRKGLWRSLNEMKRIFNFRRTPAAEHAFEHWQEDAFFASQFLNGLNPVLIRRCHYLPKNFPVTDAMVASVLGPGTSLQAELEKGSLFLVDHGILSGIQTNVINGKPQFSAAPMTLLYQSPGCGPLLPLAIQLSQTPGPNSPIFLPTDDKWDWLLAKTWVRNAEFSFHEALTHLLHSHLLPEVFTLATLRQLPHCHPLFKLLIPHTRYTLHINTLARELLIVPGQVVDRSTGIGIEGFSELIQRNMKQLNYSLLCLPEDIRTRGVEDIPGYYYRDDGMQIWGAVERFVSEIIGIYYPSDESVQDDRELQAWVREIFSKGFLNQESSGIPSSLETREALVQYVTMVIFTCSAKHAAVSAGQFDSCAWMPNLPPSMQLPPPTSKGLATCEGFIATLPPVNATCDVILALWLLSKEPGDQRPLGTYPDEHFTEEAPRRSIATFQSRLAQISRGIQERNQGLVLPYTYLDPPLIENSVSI
Nature of the assay: 15-LO-2 inhibition assay, Cerep (Method A, fluorometry). It is filed as biochemical. As to conditions: 5 µM.

Another assay addresses T3, EP1 (Homo sapiens, UniProt P34995).
T3 sequence (P34995 1-402): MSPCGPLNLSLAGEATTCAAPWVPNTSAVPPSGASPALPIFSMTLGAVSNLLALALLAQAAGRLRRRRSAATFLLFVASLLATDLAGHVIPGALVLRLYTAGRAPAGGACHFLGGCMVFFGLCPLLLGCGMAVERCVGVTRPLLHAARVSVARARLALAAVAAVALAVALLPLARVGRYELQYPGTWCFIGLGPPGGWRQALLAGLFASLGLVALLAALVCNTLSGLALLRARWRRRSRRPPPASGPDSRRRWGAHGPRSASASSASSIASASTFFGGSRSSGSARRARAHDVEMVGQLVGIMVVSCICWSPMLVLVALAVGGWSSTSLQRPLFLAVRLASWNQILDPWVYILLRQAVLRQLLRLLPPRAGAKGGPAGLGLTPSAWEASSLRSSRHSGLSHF
The experiment in a line: EP1 functional agonist assay, Cerep (intracellular Ca2+).

Another assay addresses T4, EphA3 (Homo sapiens, UniProt P29320).
T4 sequence (P29320 21-983): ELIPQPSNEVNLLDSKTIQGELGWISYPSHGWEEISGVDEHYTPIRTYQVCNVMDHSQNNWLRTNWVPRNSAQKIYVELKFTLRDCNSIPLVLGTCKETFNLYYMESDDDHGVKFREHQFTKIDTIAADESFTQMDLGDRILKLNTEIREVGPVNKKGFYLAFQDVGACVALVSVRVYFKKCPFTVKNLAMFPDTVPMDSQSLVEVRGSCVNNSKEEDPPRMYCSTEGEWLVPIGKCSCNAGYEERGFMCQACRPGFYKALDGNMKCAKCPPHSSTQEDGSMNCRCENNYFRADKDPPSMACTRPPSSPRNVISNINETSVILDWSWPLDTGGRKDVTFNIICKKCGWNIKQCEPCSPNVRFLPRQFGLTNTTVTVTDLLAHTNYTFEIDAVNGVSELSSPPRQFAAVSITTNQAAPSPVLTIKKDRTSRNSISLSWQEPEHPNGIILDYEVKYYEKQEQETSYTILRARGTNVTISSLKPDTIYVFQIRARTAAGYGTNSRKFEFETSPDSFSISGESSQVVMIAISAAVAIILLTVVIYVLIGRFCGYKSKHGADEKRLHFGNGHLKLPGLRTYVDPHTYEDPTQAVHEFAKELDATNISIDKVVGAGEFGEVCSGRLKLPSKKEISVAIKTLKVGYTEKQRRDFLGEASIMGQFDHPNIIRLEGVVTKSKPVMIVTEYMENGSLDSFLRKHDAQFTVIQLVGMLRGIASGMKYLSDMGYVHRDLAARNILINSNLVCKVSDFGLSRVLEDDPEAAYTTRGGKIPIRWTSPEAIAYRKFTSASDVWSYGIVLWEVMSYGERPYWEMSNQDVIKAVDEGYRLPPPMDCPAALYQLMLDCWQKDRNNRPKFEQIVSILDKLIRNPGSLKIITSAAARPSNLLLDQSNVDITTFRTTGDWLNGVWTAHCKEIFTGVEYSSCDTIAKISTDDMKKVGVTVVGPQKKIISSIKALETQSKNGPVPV
Nature of the assay: ExpresS Diversity Kinase Profile, Cerep (LANCE): EphA3. The class given is biochemical. A general note: Time-resolved FRET reads energy transfer from a long-lived donor to a nearby acceptor.

On to `CC1(C)CCC2=C(O1)c1ccccc1C(=O)C2=O` [β-Lapachone], for which the IC50 on 5-LO (IC50 (5-LO), intact human neutrophils, without DTT, n = 3) worked out at 8.6 µM; on 5-LO (IC50, intact human neutrophils supplemented with 1 mM DTT, n = 4), 0.42 µM. Further, the inhibition at 5 µM on 15-LO-2 (n = 2, read-out: % inhibition of control values, Mean) was -12.9%; on 15-LO-2 (read-out: % inhibition of control values, 1st measure), -12%; on 15-LO-2 (read-out: % inhibition of control values, 2nd measure) it was -13.8%. The remaining activity at 150 µM was -11.9% at EP1 (read-out: % of control values, 1st measurement); -11.9% on EP1 (read-out: % of control values, 2nd measurement); -11.9% on EP1 (read-out: % of control values, Mean). The inhibition at 150 µM at EphA3 (n = 2, read-out: % Inhibition of control values, Mean) is 65.1%; on EphA3 (read-out: % Inhibition of control values, 1st measurement), 66.8%; on EphA3 (read-out: % Inhibition of control values, 2nd measurement), 63.3%.
